Here are results for twelve compounds from ChEMBL document CHEMBL1129320, “The enediyne antibiotics” (J Med Chem, 1996).

The test system of one data set is CAPAN-1. Kind of data set: Cytotoxic activity against Capan-1 pancreatic carcinoma tumor cell lines. Format: functional, cell-based. As to conditions: Homo sapiens.
A further data set has as its system H322. Put plainly: Cytotoxic activity against H-322 lung carcinoma tumor cell lines. Format: functional, cell-based. As to conditions: Homo sapiens, NCI-H322.
The subject of the next data set is HMEC. Put plainly: Cytotoxic activity against HMEC human mammary epithelial normal cell lines. It counts as functional, cell-based.
The subject of a further data set is HNBM. Put plainly: Cytotoxic activity against HNBM bone marrow normal cell lines. As to conditions: Homo sapiens. It counts as functional, cell-based.
For another data set, the system named is HT-29. Put plainly: Cytotoxic activity against HT-29 Colon carcinoma tumor cell lines. As to conditions: Homo sapiens. Format: functional, cell-based.
Another data set concerns HL-60. Put plainly: Cytotoxic activity against HL-60 promyelocytic leukemia tumor cell lines. It counts as functional, cell-based. As to conditions: Homo sapiens.
The subject of another data set is M14. Put plainly: Cytotoxic activity against M-14 melanoma tumor cell lines. Format: functional, cell-based. As to conditions: Homo sapiens.
Another data set relates to M21. Put plainly: Cytotoxic activity against M-21 melanoma tumor cell lines. Format: functional, cell-based. As to conditions: Homo sapiens.
Data set [1] deals with L1210. Kind of data set: Cytotoxic activity against L-1210 mouse leukemia tumor cell lines. Format: functional, cell-based.
The next data set deals with MCF7. Kind of data set: Cytotoxic activity against MCF-7 breast carcinoma tumor cell lines. As to conditions: Homo sapiens. It counts as functional, cell-based.
A further data set concerns OVCAR-3. Kind of data set: Cytotoxic activity against Ovcar-3 ovarian carcinoma tumor cell lines. Format: functional, cell-based. As to conditions: Homo sapiens.
In another data set the test system is OVCAR-4. Kind of data set: Cytotoxic activity against Ovcar-4 ovarian carcinoma tumor cell lines. Format: functional, cell-based. As to conditions: Homo sapiens.
For a further data set, the system named is RPMI-8226. Put plainly: Cytotoxic activity against RPMI-8226 myeloma tumor cell lines. Format: functional, cell-based. As to conditions: Homo sapiens.
The next data set relates to SK-MEL-28. Kind of data set: Cytotoxic activity against SK-Mel-28 melanoma tumor cell lines. It counts as functional, cell-based. As to conditions: Homo sapiens.
The test system of the next data set is U-251. Kind of data set: Cytotoxic activity against U-251 MG glioblastoma tumor cell lines. It counts as functional, cell-based. As to conditions: Homo sapiens.
In the next data set the test system is TCAF. Put plainly: Cytotoxic activity against TCAF T-cell leukemia tumor cell lines. It counts as functional, cell-based. As to conditions: Homo sapiens.
The next data set relates to TCAF-DAX. Put plainly: Cytotoxic activity against TCAF-DAX T-cell leukemia tumor cell lines. It counts as functional, cell-based. As to conditions: Homo sapiens.
Another data set has as its system UCLA P-3. Put plainly: Cytotoxic activity against UCLA P-3 lung carcinoma tumor cell lines. It counts as functional, cell-based. As to conditions: Homo sapiens.
Data set [2] concerns P388. Put plainly: Cytotoxic activity against P-388 mouse leukemia cell lines. It counts as functional, cell-based.
A further data set has as its system U-87 MG. Kind of data set: Cytotoxic activity against […] astrocytoma tumor cell lines. As to conditions: Homo sapiens. It counts as functional, cell-based, U-87MG ATCC.
The next data set concerns NHDF. Put plainly: Cytotoxic activity against NHDF normal human dermal fibroblast cell lines. Format: functional, cell-based.
A short description of data set [3]: Half life at 37 degree Centigrade. It counts as ADME.
Data set [4] can be described thus: Half life at 55 degree Centigrade. It counts as ADME.
Data set [5] in a line: Half life at 110 degree Centigrade. It counts as ADME.
A further data set concerns B16. Put plainly: Optimum dose against solid neoplasm B-16 melanoma. Format: functional, Mus musculus.
The test system of data set [6] is L1210. Kind of data set: Optimum dose against murine L1210 leukemia. It counts as functional, Mus musculus.
Data set [7] relates to P388. Kind of data set: Optimum dose against P388 murine tumor cell line. Format: functional, Mus musculus.
The subject of the next data set is Colon 26 (Mus musculus). Put plainly: Optimum dose against solid neoplasm colon 26.

Structures are written as SMILES.

The term IC50 denotes the midpoint of a concentration-inhibition curve. A lower IC50 goes with higher potency. As to `O=C(OCCS(=O)(=O)c1ccccc1)N1c2ccc(OCCO)cc2[C@@]23O[C@]24CCC[C@H]3C#C/C=C\C#C[C@H]14`, the concentration for half-maximal inhibition (IC50) is 3.1 nM with CAPAN-1; 390 nM in the data set on H322; 6300 nM with HMEC; 50000 nM with HNBM; 1600 nM in the data set on HT-29; 0.036 nM in the data set on HL-60. Further, the IC50 was determined as 1600 nM in the data set with M14; 1600 nM with M21; 1.3 nM with L1210 [1]; 780 nM with MCF7; 780 nM in the data set on OVCAR-3; 780 nM in the data set on OVCAR-4. In addition, the IC50 in the data set with RPMI-8226 was determined as 7.7 nM; with SK-MEL-28, 3100 nM; with U-251 it was 390 nM; in the data set on TCAF, 1.1 nM; in the data set with TCAF-DAX it was 1.7 nM; in the data set with UCLA P-3 it was 98 nM. The figures for the IC50 in the data set with P388 [2], in the data set with U-87 MG and in the data set on NHDF were 4.6 nM, 780 nM and 5000 nM, respectively.

`CNC1C(O[C@H]2C#C/C=C\C#C[C@]3(O)CC(=O)C(NC(=O)OC)[C@]24SCCC=C34)OC(C)C(O)C1O` (stereo partly drawn) had a T1/2 in [3] of 4.5 s.

Usually half-life stands for how long it takes for the measured level to halve. A high value points to slow loss. For the compound `CC1=C(C)C(=O)C2=C(C#CCCCC(=O)C#C2)C1=O`, in data set [4], the half-life was found to be 0.533 h.

In data set [5], `Cc1c(C)c(C(=O)OC(C)(C)C)c2c(c1C(=O)OC(C)(C)C)C#CCCCC(O)C#C2` (stereo not drawn) showed a half-life of 74 h.

In data set [4], `CC1=C(C)C(=O)C2=C(C#CCCCC(O)C#C2)C1=O` (stereo not drawn) had a half-life of 2.6 h.

For the compound `CCNC1COC(OC2C(OC3C#C/C=C\C#C[C@]4(O)CC(=O)C(NC(=O)OC)=C3/C4=C/CSSSC)OC(C)C(NOC3CC(O)C(SC(=O)c4c(C)c(I)c(O)c(OC)c4OC)C(C)O3)C2O)CC1OC` (stereo partly drawn) [CALICHEAMICIN ALPHA1 I], the OD in the data set with B16, in the data set on L1210 [6], in the data set with P388 [7] and in the data set with Colon 26 (Mus musculus) was 5 µg/kg each time.

For `COC(=O)NC1=C2/C(=C/CSSSC)[C@](O)(C#C/C=C\C#CC2OC2OC(C)C(NOC3CC(O)C(SC(=O)c4c(C)c(I)c(OC5OC(C)C(O)C(OC)C5O)c(OC)c4OC)C(C)O3)C(O)C2O)CC1=O` (stereo partly drawn) [CALICHEAMICIN ALPHA3 I], the OD in the data set on B16, in the data set with L1210 [6], with P388 [7] and with Colon 26 (Mus musculus) was 5 µg/kg each time.

Take `COC(=O)NC1=C2/C(=C/CSSSC)[C@](O)(C#C/C=C\C#CC2OC2OC(C)C(NOC3CC(O)C(SC(=O)c4c(C)c(Br)c(OC5OC(C)C(O)C(OC)C5O)c(OC)c4OC)C(C)O3)C(O)C2OC2CC(OC)C(NC(C)C)CO2)CC1=O` (stereo partly drawn) [CALICHEAMICIN BETA1 BR]: the OD in the data set on B16, in the data set on L1210 [6], in the data set on P388 [7] and in the data set with Colon 26 (Mus musculus) was 5 µg/kg each time.

For the compound `COC(=O)NC1=C2/C(=C/CSSSC)[C@](O)(C#C/C=C\C#CC2OC2OC(C)C(NOC3CC(O)C(SC(=O)c4c(C)c(I)c(OC5OC(C)C(O)C(OC)C5O)c(OC)c4OC)C(C)O3)C(O)C2OC2CC(OC)C(NC(C)C)CO2)CC1=O` (stereo partly drawn) [CALICHEAMICIN BETA1 I], the OD in the data set on B16, in the data set on L1210 [6], in the data set with P388 [7] and in the data set on Colon 26 (Mus musculus) was 5 µg/kg each time.

Consider `CNC1COC(OC2C(OC3C#C/C=C\C#C[C@]4(O)CC(=O)C(NC(=O)OC)=C3/C4=C/CSSSC)OC(C)C(NOC3CC(O)C(SC(=O)c4c(C)c(I)c(OC5OC(C)C(O)C(OC)C5O)c(OC)c4OC)C(C)O3)C2O)CC1OC` (stereo partly drawn) [CALICHEAMICIN DELTA1 I], for which the OD in the data set on B16, with L1210 [6], in the data set with P388 [7] and with Colon 26 (Mus musculus) was 5 µg/kg in each case.

For the compound `CCNC1COC(OC2C(OC3C#C/C=C\C#C[C@]4(O)CC(=O)C(NC(=O)OC)=C3/C4=C/CSSSC)OC(C)C(NOC3CC(O)C(SC(=O)c4c(C)c(Br)c(OC5OC(C)C(O)C(OC)C5O)c(OC)c4OC)C(C)O3)C2O)CC1OC` (stereo partly drawn) [CALICHEAMICIN GAMMA1 BR], the OD in the data set with B16, with L1210 [6], in the data set with P388 [7] and in the data set with Colon 26 (Mus musculus) was 5 µg/kg in each case.

Turning to `CCN[C@H]1CO[C@@H](O[C@H]2[C@H](O[C@H]3C#C/C=C/C#C[C@@]4(O)CC(=O)C(NC(=O)OC)=C3/C4=C\CSSSC)O[C@H](C)[C@@H](NO[C@H]3C[C@H](O)[C@H](SC(=O)c4c(C)c(I)c(O[C@@H]5O[C@@H](C)[C@H](O)[C@@H](OC)[C@H]5O)c(OC)c4OC)[C@@H](C)O3)[C@@H]2O)C[C@@H]1OC` [CALICHEAMICIN GAMMA1 I], the OD with B16, in the data set on L1210 [6], in the data set on P388 [7] and in the data set with Colon 26 (Mus musculus) was 5 µg/kg in each case.
